ChEMBL document CHEMBL5113444, “Synthesis of biotinylated-LPG as a chemical biology tool enabling discovery of ALCAT1 modulators” (Bioorg Med Chem Lett, 2022)
Active and inactive are the calls of the source. The calls are words filed in the database; no cut-off is given here.

Columns and labels:
[1] = molecular target: T1, Lysocardiolipin acyltransferase 1 (Homo sapiens) (UniProt Q6UWP7); assay: Substrate activity at recombinant human ALCAT1 expressed in HEK293 cells using oleoyl-CoA as substrate assessed as biotinylated (BTN)-di-oleoyl LPG product formation by Rapidfire-triple quad mass spectrometry analysis; conditions: filed as modulator, time <= 64.0 min, TDE = time-dependent effect
T1 sequence (whole entry): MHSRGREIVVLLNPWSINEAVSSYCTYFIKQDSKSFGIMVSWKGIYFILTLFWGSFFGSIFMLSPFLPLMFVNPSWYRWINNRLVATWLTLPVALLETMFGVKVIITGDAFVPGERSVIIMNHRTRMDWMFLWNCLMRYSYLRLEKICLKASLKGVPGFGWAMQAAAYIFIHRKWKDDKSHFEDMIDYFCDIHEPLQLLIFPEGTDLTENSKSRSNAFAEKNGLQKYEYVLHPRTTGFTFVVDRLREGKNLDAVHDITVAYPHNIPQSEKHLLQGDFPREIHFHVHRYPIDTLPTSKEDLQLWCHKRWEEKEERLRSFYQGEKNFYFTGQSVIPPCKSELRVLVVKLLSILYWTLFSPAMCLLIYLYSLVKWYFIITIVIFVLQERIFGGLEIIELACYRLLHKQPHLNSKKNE

[2] = molecular target: T1, Lysocardiolipin acyltransferase 1 (Homo sapiens); assay: Substrate activity at recombinant human ALCAT1 expressed in HEK293 cells using oleoyl-CoA as substrate assessed as acylated product formation by Rapidfire-triple quad mass spectrometry analysis; conditions: filed as modulator

Row | Activity [1] | Activity [2] | Compound
1 | Tde |  | O=C1N[C@H]2[C@H](CS[C@H]2CCCCC(=O)OCCCCCCC/C=C\CCCCCCCC(=O)OC[C@@H](O)COP(=O)(O)OCC(O)CO)N1 (some centres not stated)
2 |  | Active | CCCCCCCCCCCCCCCC(=O)OC[C@H](O)COP(=O)(O)OC[C@H](O)CO
